In test [1] the test system is Leptinotarsa decemlineata. As to the kind of experiment: Insecticidal activity against third-instar larval stage of Leptinotarsa decemlineata infested potato leaves assessed as mortality at 10 mg after 12 hr relative to control. The format is functional.
Test [2] deals with Leptinotarsa decemlineata. It counts as functional, Instar larval stage.
For test [3], the system named is Leptinotarsa decemlineata. It counts as functional, Instar larval stage. The source holds these as a separate data set.
The test system of test [4] is Leptinotarsa decemlineata. The format is functional, Instar larval stage. This is another data set of the same source.
Test [5] concerns Leptinotarsa decemlineata. Nature of the test: Insecticidal activity against second-instar larval stage of Leptinotarsa decemlineata infested potato leaves assessed as mortality at 20 mg after 12 hr relative to control. The format is functional.
For test [6], the system named is Leptinotarsa decemlineata. The format is functional, Instar larval stage. The source holds these as a separate data set.
The subject of test [7] is Leptinotarsa decemlineata. It counts as functional, Instar larval stage. The source holds these as a separate data set.
Test [8] relates to Leptinotarsa decemlineata. It counts as functional, Instar larval stage. The source holds these as a separate data set.
In test [9] the test system is Leptinotarsa decemlineata. As to the kind of experiment: Insecticidal activity against second-instar larval stage of Leptinotarsa decemlineata infested potato leaves assessed as mortality at 10 mg after 12 hr relative to control. It counts as functional.
Test [10] concerns Leptinotarsa decemlineata. Nature of the test: Insecticidal activity against adult Leptinotarsa decemlineata infested potato leaves assessed as mortality at 20 mg after 96 hr relative to control. It counts as functional.
Test [11] concerns Leptinotarsa decemlineata. As to the kind of experiment: Insecticidal activity against first-instar larval stage of Leptinotarsa decemlineata infested potato leaves assessed as mortality at 10 mg after 48 hr relative to control. It counts as functional.
The test system of test [12] is Leptinotarsa decemlineata. As to the kind of experiment: Insecticidal activity against first-instar larval stage of Leptinotarsa decemlineata infested potato leaves assessed as mortality at 20 mg after 96 hr relative to control. It counts as functional.
Test [13] has as its system Leptinotarsa decemlineata. Nature of the test: Insecticidal activity against first-instar larval stage of Leptinotarsa decemlineata infested potato leaves assessed as mortality at 20 mg after 48 hr relative to control. It counts as functional.
Test [14] concerns Leptinotarsa decemlineata. Nature of the test: Insecticidal activity against first-instar larval stage of Leptinotarsa decemlineata infested potato leaves assessed as mortality at 20 mg after 24 hr relative to control. It counts as functional.
Test [15] has as its system Leptinotarsa decemlineata. Nature of the test: Insecticidal activity against first-instar larval stage of Leptinotarsa decemlineata infested potato leaves assessed as mortality at 20 mg after 12 hr relative to control. The format is functional.
Test [16] relates to Leptinotarsa decemlineata. Nature of the test: Insecticidal activity against first-instar larval stage of Leptinotarsa decemlineata infested potato leaves assessed as mortality at 10 mg after 96 hr relative to control. The format is functional.
Test [17] deals with Leptinotarsa decemlineata. As to the kind of experiment: Insecticidal activity against first-instar larval stage of Leptinotarsa decemlineata infested potato leaves assessed as mortality at 10 mg after 24 hr relative to control. The format is functional.
Test [18] deals with Leptinotarsa decemlineata. As to the kind of experiment: Insecticidal activity against adult Leptinotarsa decemlineata infested potato leaves assessed as mortality at 20 mg after 48 hr relative to control. The format is functional.
Test [19] deals with Leptinotarsa decemlineata. As to the kind of experiment: Insecticidal activity against adult Leptinotarsa decemlineata infested potato leaves assessed as mortality at 20 mg after 24 hr relative to control. It counts as functional.
Test [20] has as its system Leptinotarsa decemlineata. Nature of the test: Insecticidal activity against adult Leptinotarsa decemlineata infested potato leaves assessed as mortality at 20 mg after 12 hr relative to control. It counts as functional.
Test [21] relates to Leptinotarsa decemlineata. Nature of the test: Insecticidal activity against adult Leptinotarsa decemlineata infested potato leaves assessed as mortality at 10 mg after 96 hr relative to control. The format is functional.
Test [22] concerns Leptinotarsa decemlineata. Nature of the test: Insecticidal activity against adult Leptinotarsa decemlineata infested potato leaves assessed as mortality at 10 mg after 48 hr relative to control. The format is functional.
The subject of test [23] is Leptinotarsa decemlineata. As to the kind of experiment: Insecticidal activity against adult Leptinotarsa decemlineata infested potato leaves assessed as mortality at 10 mg after 24 hr relative to control. It counts as functional.
Test [24] concerns Leptinotarsa decemlineata. As to the kind of experiment: Insecticidal activity against adult Leptinotarsa decemlineata infested potato leaves assessed as mortality at 10 mg after 12 hr relative to control. It counts as functional.
Test [25] has as its system Leptinotarsa decemlineata. Nature of the test: Insecticidal activity against first-instar larval stage of Leptinotarsa decemlineata infested potato leaves assessed as mortality at 10 mg after 12 hr relative to control. The format is functional.
Test [26] deals with Leptinotarsa decemlineata. The format is functional, Instar larval stage. The source holds these as a separate data set.
Test [27] has as its system Leptinotarsa decemlineata. It counts as functional, Instar larval stage. This is another data set of the same source.
Test [28] relates to Leptinotarsa decemlineata. Nature of the test: Insecticidal activity against third-instar larval stage of Leptinotarsa decemlineata infested potato leaves assessed as mortality at 20 mg after 24 hr relative to control. It counts as functional.
Test [29] has as its system Leptinotarsa decemlineata. Nature of the test: Insecticidal activity against third-instar larval stage of Leptinotarsa decemlineata infested potato leaves assessed as mortality at 20 mg after 12 hr relative to control. It counts as functional.
The subject of test [30] is Leptinotarsa decemlineata. It counts as functional, Instar larval stage. The source holds these as a separate data set.
In test [31] the test system is Leptinotarsa decemlineata. The format is functional, Instar larval stage. This is another data set of the same source.
Test [32] deals with Leptinotarsa decemlineata. As to the kind of experiment: Insecticidal activity against third-instar larval stage of Leptinotarsa decemlineata infested potato leaves assessed as mortality at 10 mg after 24 hr relative to control. It counts as functional.
The test system of test [33] is Sitophilus granarius. As to the kind of experiment: Insecticidal activity against Sitophilus granarius (granary weevil) assessed as mortality. The format is functional.

In general, mortality refers to the share of the test organisms that died.

`CC1CCC(C(C)C)C(O)C1` (stereo not drawn) [MENTHOL]: the mortality in test [1] came to 20%; in test [2], 40%; in [3], 33.3%; in test [4], 20%; in test [5], 0%; in test [6], 46.7%. Moreover, the mortality in [7] was 26.7%; in test [8], 6.7%; in test [9], 3.3%; in test [10] it was 33%; in [11], 16.7%; in [12], 36.7%. The mortality is 30% in test [13]; 16.7% in [14]; 0% in test [15]; 36.7% in test [16]; 3.3% in test [17]; 13.3% in test [18]. Also, the mortality was 0% in test [19]; 0% in test [20]; 30% in [21]; 16.7% in test [22]; 3.3% in [23]; 3.3% in [24]. For the same compound, the mortality in [25] is recorded as 0%; in test [26], 40%; in test [27] it was 40%; in test [28] it was 33.3%; in test [29], 26.7%; in test [30], 26.7%. Besides, the mortality in test [31] and in test [32] was 23.3% each time.

On to `CC(C)=C1CC[C@@H](C)CC1=O` [PULEGONE], for which, in test [33], the mortality came out at 90%.
